From article PMC6085608, “Glutathione S-transferases play a role in the detoxification of flumethrin and chlorpyrifos in Haemaphysalis longicornis” (Parasites & Vectors, 2018)

How the values were obtained:
recombinant HlGST2 = target: T1, recombinant HlGST2 (Haemaphysalis longicornis, UniProt A0A2Z6FA39); assay: CDNB conjugation kinetics with […] acaricide; type: biochemical; settings: inhibitor, noncompetitive, 5 mM glutathione, CDNB 0.125-2 mM, pH 7.5, 25 °C
T1 construct: gene GST

recombinant HlGST = target: T2, recombinant HlGST (Haemaphysalis longicornis, UniProt Q6JVN0); assay: CDNB conjugation kinetics with […] acaricide; type: biochemical; settings: 5 mM glutathione, CDNB 0.125-2 mM, pH 7.5, 25 °C
T2 construct: gene GST
T2 sequence (Q6JVN0 1-223): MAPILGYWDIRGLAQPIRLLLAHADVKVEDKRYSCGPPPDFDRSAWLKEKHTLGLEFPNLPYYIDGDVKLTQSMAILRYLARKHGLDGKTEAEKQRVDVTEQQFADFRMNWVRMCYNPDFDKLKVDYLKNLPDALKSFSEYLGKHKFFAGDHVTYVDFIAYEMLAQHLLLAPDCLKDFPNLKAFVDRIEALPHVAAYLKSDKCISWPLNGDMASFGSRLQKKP

T1 sequence (A0A2Z6FA39 1-230): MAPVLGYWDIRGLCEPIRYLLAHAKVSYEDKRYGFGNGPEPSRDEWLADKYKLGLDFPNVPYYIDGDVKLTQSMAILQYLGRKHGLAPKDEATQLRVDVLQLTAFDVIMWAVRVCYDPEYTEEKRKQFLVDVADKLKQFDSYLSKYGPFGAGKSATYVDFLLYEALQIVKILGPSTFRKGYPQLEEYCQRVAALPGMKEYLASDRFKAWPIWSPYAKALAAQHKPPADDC

Row | SMILES | CDNB conjugation kinetics with 0.1 mM acaricide (recombinant HlGST2) | CDNB conjugation kinetics with 0.1 mM acaricide (recombinant HlGST; apparent activator (lowers Km for CDNB)) | CDNB conjugation kinetics with 0.1 mM acaricide (recombinant HlGST; inhibitor, uncompetitive)
1 | CCOP(=S)(OCC)Oc1nc(Cl)c(Cl)cc1Cl [chlorpyrifos] | chlorpyrifos and cypermethrin showed noncompetitive inhibition of recombinant HlGST2 |  | 
2 | CCOP(=S)(OCC)Oc1ccc2c(C)c(Cl)c(=O)oc2c1 [coumaphos] |  | Coumaphos significantly decreased the Km of recombinant HlGST, indicating the apparent activation | 
3 | CC1(C)C(C=C(Cl)Cl)C1C(=O)OC(C#N)c1cccc(Oc2ccccc2)c1 (centres unmarked) [cypermethrin] | chlorpyrifos and cypermethrin showed noncompetitive inhibition of recombinant HlGST2 |  | flumethrin and cypermethrin showed uncompetitive inhibition of recombinant HlGST
4 | CC1(C)C(C=C(Cl)c2ccc(Cl)cc2)C1C(=O)OC(C#N)c1ccc(F)c(Oc2ccccc2)c1 (centres unmarked) [flumethrin] |  |  | flumethrin and cypermethrin showed uncompetitive inhibition of recombinant HlGST
